Source: PMC3855825 (Molecular and biochemical parasitology, 2012)
Entries after “also recorded” stand apart in the source; their conditions may differ. Where two headings read alike, the source gives them in different places.

What was measured:
HsDHOD [1] = conditions: read-out: Km for QD, HsDHOD; cited from earlier work
TgDHOD-VSSM = target: T1, TgDHOD-VSSM (Toxoplasma gondii, UniProt Q8MXD1); experiment: Use of electron acceptors and substrate kinetics of TgDHOD-VSSM
T1 sequence (Q8MXD1 178-592): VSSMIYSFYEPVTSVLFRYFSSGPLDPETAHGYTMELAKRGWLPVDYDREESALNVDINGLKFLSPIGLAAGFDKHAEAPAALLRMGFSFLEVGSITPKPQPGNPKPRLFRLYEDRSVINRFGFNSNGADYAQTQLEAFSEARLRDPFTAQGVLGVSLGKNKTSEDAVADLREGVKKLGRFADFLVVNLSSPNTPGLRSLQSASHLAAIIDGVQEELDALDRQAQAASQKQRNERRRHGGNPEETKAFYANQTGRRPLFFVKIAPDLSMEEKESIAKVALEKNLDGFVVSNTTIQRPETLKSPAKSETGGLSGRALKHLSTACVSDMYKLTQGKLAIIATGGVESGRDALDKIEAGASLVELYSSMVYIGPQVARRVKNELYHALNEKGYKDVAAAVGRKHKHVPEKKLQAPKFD

PfDHOD [2] = conditions: read-out: PfDHOD IC50, cited from earlier work
HsDHOD [3] = conditions: read-out: HsDHOD IC50, cited from earlier work
TgDHOD = TgDHOD (Toxoplasma gondii, UniProt Q8MXD1); experiment: Inhibition of recombinant TgDHOD-VSSM, DCIP reduction assay with QD; conditions: for Effect on TgDHOD activity (in words): no concentration stated at the place; for Type of inhibition of TgDHOD (best fit): QD as variable substrate, saturating dihydroorotate, SigmaPlot12 fit; for Inhibition of TgDHOD (in words): inhibitor 1 mM, DCIP reduction assay with QD
PfDHOD [4] = conditions: read-out: Km for quinone, recombinant PfDHOD; cited from earlier work
[5] = tested on: Saccharomyces cerevisiae complex III; conditions: read-out: IC50 for Saccharomyces cerevisiae complex III; cited from earlier work
human complex III = conditions: read-out: IC50 for human complex III; cited from earlier work
[6] = read-out: TgDHOD activity compared to the control

Question: With `CCCCCCCCCCC1=C(C)C(=O)C(OC)=C(OC)C1=O` [QD, 2,3-dimethoxy-5-methyl-6-decyl-1,4-benzoquinone] as the molecule, how does the Km (HsDHOD [1]) read?
Answer: The Km was 14 µM.

Question: With `O=C(O)/C=C/C(=O)O` [Fumarate] as the molecule, how does the “Activity as electron acceptor for TgDHOD (in words)” value (TgDHOD-VSSM) read?
Answer: Its value is “poor electron acceptor; also recorded: negligible activity”.

Question: With `Cc1cc(Nc2cc(F)c(C(F)(F)F)c(F)c2)n2ncnc2n1` [DSM190, N-(3,5-difluoro-4-(trifluoromethyl)phenyl)-5-methyl-[1,2,4]triazolo[1,5-a]pyrimidin-7-amine] as the molecule, how does the IC50 (PfDHOD [2]; ref 16 Gujjar et al., 2011) read?
Answer: The IC50 was 190 nM.

Question: What about the IC50 (HsDHOD [3]; ref 16 Gujjar et al., 2011) of the same molecule?
Answer: The IC50 was greater than 30000 nM.

Question: And the “Effect on TgDHOD activity (in words)” value (TgDHOD)?
Answer: Its value is “poor inhibitor”.

Question: Which Km (PfDHOD [4]) does the source give for `COC1=C(OC)C(=O)C(C)=CC1=O` [Q0, 2,3-dimethoxy-5-methyl-1,4-benzoquinone] here?
Answer: Its Km is 55 to 115 µM.

Question: Which “Effect on TgDHOD activity (in words)” value (TgDHOD) does the source give for `COc1cc(-c2ccc(Nc3ccccc3C(=O)O)c(OC)c2)ccc1Nc1ccccc1C(=O)O` [redoxal, (2,2′-[3,3′-dimethoxy[1,1′-biphenyl]-4,4′-diyl]diimino)bis-benzoic acid] here?
Answer: Its value is “not efficient inhibitors”.

Question: For `COc1ccccc1-c1ccc(NC(=O)C(C#N)=C(C)O)c(Cl)c1` [MD209, N-(3-chloro-2′-methoxybiphenyl-4-yl)-2-cyano-3-hydroxybut-2-enamide], which IC50 (PfDHOD [2]; ref 17 Davies et al., 2009) is on record?
Answer: Its IC50 is 8600 nM.

Question: What about the IC50 (HsDHOD [3]; ref 17 Davies et al., 2009) of the same molecule?
Answer: Its IC50 is 200 nM.

Question: And the Ki (TgDHOD)?
Answer: Its Ki is 18000 nM.

Question: What about the “Type of inhibition of TgDHOD (best fit)” value (TgDHOD) of the same molecule?
Answer: The value was “partial mixed inhibition”.

Question: For `CC(O)=C(C#N)C(=O)Nc1ccc(-c2cccc(Cl)c2Cl)cc1Cl` [MD249], which IC50 (PfDHOD [2]; ref 17 Davies et al., 2009) is on record?
Answer: Its IC50 is 9900 nM.

Question: What about the IC50 (HsDHOD [3]; ref 17 Davies et al., 2009) of the same molecule?
Answer: The IC50 was 330 nM.

Question: And the “Type of inhibition of TgDHOD (best fit)” value (TgDHOD)?
Answer: Its value is “partial mixed inhibition”.

Question: For `O=C(CC(=O)C(F)(F)F)c1cccs1` [TTFA, 4,4,4-trifluoro-1-(thienyl)-1,3-butanedione], which “Inhibition of TgDHOD (in words)” value (TgDHOD) is on record?
Answer: Its value is “No significant inhibition”.

Question: And the “Effect on TgDHOD activity (in words)” value (TgDHOD)?
Answer: Its value is “not significantly affected; also recorded: no effect”.

Question: Which “Effect on TgDHOD activity (in words)” value (TgDHOD) does the source give for `Cc1cc(-n2c(=O)[nH]c(=O)n(C)c2=O)ccc1Oc1ccc(SC(F)(F)F)cc1` [toltrazuril, 1-(3-methyl-4(4′-trifluoromethylthiophenoxy)phenyl)-3-methyl-1,3,5-triazine-2,4,6-(1H,3H,5H)-trione] here?
Answer: The value was “little effect”.

Question: And the remaining activity at 500 µM (TgDHOD; [6])?
Answer: The remaining activity at 500 µM was 82.9%.

Question: With `CC1=CC(=O)c2ccccc2C1=O` [Menadione, 2-methyl-1,4-naphthoquinone] as the molecule, how does the Km (PfDHOD [4]) read?
Answer: The Km was 55 to 115 µM.

Question: Which results are given for `O=C1C(O)=C([C@H]2CC[C@H](c3ccc(Cl)cc3)CC2)C(=O)c2ccccc21` [atovaquone, trans-2-[4-(chlorophenyl)cyclohexyl]-3-hydroxy-1,4-naphthoquinone]?
Answer: IC50 [5]: 40 nM; IC50 (human complex III): 400 nM; Effect on TgDHOD activity (in words) (TgDHOD): not significantly affected; Effect on TgDHOD activity (in words) (TgDHOD; listed as Atovaquone): little effect; remaining activity at 100 µM (TgDHOD; [6]): 80.6%

Question: With `O=C1C(Cl)=CC(=Nc2ccc(O)cc2)C=C1Cl` [DCIP, 2,6 dichlorophenol-indophenol] as the molecule, how does the “kcat, background activity in the absence of ubiquinone” value (TgDHOD-VSSM; DCIP as only electron acceptor, 0.1 mM, 1 mM dihydroorotate) read?
Answer: Its value is 28.1 ± 0.7 s⁻¹.

Question: For `Cc1c(-c2ccc(-c3ccccc3F)cc2)nc2ccc(F)cc2c1C(=O)O` [brequinar, 6-fluoro-2-(2′-fluoro-1,1-biphenyl-4-yl)-3-methyl-4-quinoline carboxylic acid], which “Inhibition of TgDHOD (in words)” value (TgDHOD) is on record?
Answer: The value was “No significant inhibition”.

Question: What about the “Effect on TgDHOD activity (in words)” value (TgDHOD) of the same molecule?
Answer: The value was “not significantly affected; also recorded: not efficient inhibitors”.
